For the data set, the target named is T1, Recombinant human CYP3A4 enzyme (Homo sapiens, UniProt P08684).
T1 construct: purchased BD company lot number 3100772
Briefly: Evaluation of recombinant human CYP3A4 metabolism in vitro. It is filed as in vitro ADME. The settings on record: for conversion rate relative to that of PA4102: recombinant human CYP3A4 enzyme in vitro, ratio to PA4102 (Table 4); for Elimination Rate in vitro: recombinant human CYP3A4 enzyme, test compound 100 nM, NADPH 2 mM, pH 7.4, samples at 1, 5, 10, 20, 30 min. How it is done: Example 12 Evaluation of Recombinant Human CYP3A4 Metabolism In Vitro
Recombinant human CYP3A4 enzyme was purchased from BD company, lot number 3100772.
Test compounds PA4101, PA4102, PA4103, PA4104, PA4105, PA4106, PA4107, PA4108, PA4109, PA4110 and PA4111 were synthesized by Zhejiang Palo Alto Pharmaceuticals, Inc., and dissolved in methanol (from Sinopharm Chemical Reagent Co., Ltd.) to prepare a storage solution of a concentration of 100 μM.
Enzymatic reaction was carried out in 100 mM KH2PO4 buffer solution (pH 7.4), the concentration of the test compounds was 100 nM, the concentration of human liver microsomes was 0.1 nmol/ml, and NADPH concentration was 2 mM. The reaction was initiated by NADPH finally added, and after reaction for 1, 5, 10, 20, 30 min in a constant-temperature shaking water bath kettle, samples were taken, and 1.5 times of volume of methanol was immediately added to terminate the reaction.
3) Sample Processing and Analysis Method
The centrifugation was carried out for 20 minutes at a maximum speed of 13,600 rpm using an Eppendorf tabletop centrifuge. Supernatant was taken, and after being blow-dried by a nitrogen blower, the supernatant was re-dissolved into a mobile phase A (0.1% formic acid v/v aqueous solution).
Analytical column: Waters, Acquity UPLC HSS T3 column • Flow rate: 0.5 ml/min • Column temperature: 45° C.
III Mass Spectrometry Condition
An ion source was an electrospray ionization source (Turbo Ionspray); a positive ion mode; a capillary voltage was 3.0 kV; a temperature was 500° C.; a desolventizing airflow was 1000 L/h; and scan time, cone voltage, collision energy and ion response for quantitative analysis are shown in the following table (Table 3): […]

T1 sequence (P08684 whole entry): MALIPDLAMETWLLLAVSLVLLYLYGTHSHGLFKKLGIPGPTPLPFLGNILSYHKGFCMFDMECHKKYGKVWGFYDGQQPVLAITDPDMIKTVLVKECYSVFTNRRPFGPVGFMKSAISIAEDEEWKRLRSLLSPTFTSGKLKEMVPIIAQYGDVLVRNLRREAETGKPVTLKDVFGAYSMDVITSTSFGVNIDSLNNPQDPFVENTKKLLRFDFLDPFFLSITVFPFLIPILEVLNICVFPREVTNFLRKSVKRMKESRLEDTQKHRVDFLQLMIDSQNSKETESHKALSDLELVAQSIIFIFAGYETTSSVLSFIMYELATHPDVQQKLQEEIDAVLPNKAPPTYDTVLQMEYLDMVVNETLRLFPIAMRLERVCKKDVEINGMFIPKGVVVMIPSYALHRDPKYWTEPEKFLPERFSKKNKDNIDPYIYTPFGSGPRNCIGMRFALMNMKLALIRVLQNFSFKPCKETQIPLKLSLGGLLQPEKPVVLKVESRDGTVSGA

`Nc1ccn([C@@H]2O[C@H](COP3(=O)OCC[C@H](c4cc(Cl)ccc4F)O3)[C@@H](O)[C@@H]2O)c(=O)n1` (some centres unmarked) [PA4101]: the “conversion rate relative to that of PA4102” value was approximately 10.7 times and the “Elimination Rate in vitro” value amounted to 35.0 ml/min/gprot.

`Nc1ccn([C@@H]2O[C@H](COP3(=O)OCC[C@H](c4ccncc4)O3)[C@@H](O)[C@@H]2O)c(=O)n1` (some centres unmarked) [PA4102, reference compound]: the “Elimination Rate in vitro” value amounted to 3.26 ml/min/gprot.

Take `Nc1ccn([C@@H]2O[C@H](COP3(=O)OCC[C@H](c4cc(Cl)cc(Cl)c4)O3)[C@@H](O)[C@@H]2O)c(=O)n1` (some centres unmarked) [PA4103]: the “Elimination Rate in vitro” value is given as 23.1 ml/min/gprot.

Turning to `Nc1ccn([C@@H]2O[C@H](COP3(=O)OCC[C@H](c4cc(F)cc(F)c4)O3)[C@@H](O)[C@@H]2O)c(=O)n1` (some centres unmarked) [PA4104], the “Elimination Rate in vitro” value is on record as 2.93 ml/min/gprot.

For the compound `Nc1ccn([C@@H]2O[C@H](COP3(=O)OCC[C@H](c4ccc(F)c(Cl)c4)O3)[C@@H](O)[C@@H]2O)c(=O)n1` (some centres unmarked) [PA4105], the “Elimination Rate in vitro” value is reported as 5.79 ml/min/gprot.

Regarding `Nc1ccn([C@@H]2O[C@H](COP3(=O)OCC[C@H](c4ccc(Cl)c(F)c4)O3)[C@@H](O)[C@@H]2O)c(=O)n1` (some centres unmarked) [PA4106], the “Elimination Rate in vitro” value came out at 14.9 ml/min/gprot.

As for `Nc1ccn([C@@H]2O[C@H](COP3(=O)OCC[C@H](c4cccc(Cl)c4F)O3)[C@@H](O)[C@@H]2O)c(=O)n1` (some centres unmarked) [PA4107], the “Elimination Rate in vitro” value was found to be 8.28 ml/min/gprot.

Regarding `Nc1ccn([C@@H]2O[C@H](COP3(=O)OCC[C@H](c4cc(F)ccc4Cl)O3)[C@@H](O)[C@@H]2O)c(=O)n1` (some centres unmarked) [PA4108], the “conversion rate relative to that of PA4102” value is approximately 7.24 times and the “Elimination Rate in vitro” value was 23.6 ml/min/gprot.

`Nc1ccn([C@@H]2O[C@H](COP3(=O)OCC[C@H](c4cc(Cl)ccc4Cl)O3)[C@@H](O)[C@@H]2O)c(=O)n1` (some centres unmarked) [PA4109]: the “conversion rate relative to that of PA4102” value is given as “about 20.6 times” and the “Elimination Rate in vitro” value worked out at 67.3 ml/min/gprot.

For the compound `Nc1ccn([C@@H]2O[C@H](COP3(=O)OCC[C@H](c4cc(F)ccc4F)O3)[C@@H](O)[C@@H]2O)c(=O)n1` (some centres unmarked) [PA4110], the “Elimination Rate in vitro” value is given as 8.37 ml/min/gprot.

As for `Nc1ccn([C@@H]2O[C@H](COP3(=O)OCC[C@H](c4cccc(F)c4F)O3)[C@@H](O)[C@@H]2O)c(=O)n1` (some centres unmarked) [PA4111], the “Elimination Rate in vitro” value is recorded as 9.55 ml/min/gprot.

These data come from patent US10899787B2, “Cytarabine prodrug nucleoside cyclic phosphate compound based on liverspecific delivery and use” (ZHEJIANG PALO ALTO PHARMACEUTICALS, INC., priority 2017, dated 2021).
